# Laboratory results taken from US9320722B2, “Regulators of aldehyde dehydrogenase ALDH3A1 and related therapeutic methods” (Indiana University Research and Technology Corporation, priority 2013, dated 2016).
# What was measured:
# ALDH3A1 [1] = biological target: T1, ALDH3A1 (Homo sapiens (Human), UniProt P30838); conditions: read-out: ALDH3A1 IC50 (micromolar); Table 4(B), hits from ChemBridge screen
# Protocol: (§1) The enzymatic activity of ALDH1A1, ALDH2 and ALDH3A1 were measured as described previously^[30,34,37,39].
# (§2) All reactions were initiated by the addition of the aldehyde substrate. The inhibition curves were fit to the Logistic four parameter IC50 equation using the SigmaPlot (v11, StatSys). We characterized the mode of inhibition using steady-state kinetics through co-variation of inhibitor and substrate concentrations. The steady state kinetic measurements were performed in 100 mM Na2HPO4 buffer, pH 7.5. […] In all cases—including the control reactions lacking inhibitors, the final reaction mixture contained 2% (v/v) DMSO. The reaction was initiated by addition of substrate and the initial rate of product formation was determined on a Beckman DU-640. All data were fit to the non-linear velocity expressions for competitive, non-competitive, mixed-type non-competitive and uncompetitive inhibition^[40]. Appropriateness of the inhibition model was determined through analysis of goodness-of-fit and the residuals of those fits. Lineweaver-Burke plots were created using SigmaPlot (v11, StatSys) to visualize the inhibition patterns. All data represent the average of three independent experiments utilizing triplicate assays at each concentration point.
# (§3) ALDH1A1, ALDH2 and ALDH3A1 activities were measured as described earlier^33,44,45. […] Reaction was initiated by the addition of the aldehyde substrate. […] The inhibition curves were fit to the Logistic four parameter IC50 equation using the SigmaPlot (v11, StatSys). Steady state kinetic experiments were performed by co-varying inhibitor and substrate concentrations. The steady state kinetic measurements were performed in 100 mM Na2HPO4 buffer, pH 7.5.
# ALDH3A1 [2] = biological target: T1, ALDH3A1; assay: biochemical; conditions: read-out: % activity left after treating with 10 micromolar inhibitor ALDH3A1
# Protocol: as §1, §2, §3
# Solubility = assay type: physicochemical
# ALDH3A1 [3] = biological target: T1, ALDH3A1; assay type: biochemical; conditions: 50 μM CB29
# Protocol: (§4) A549, SF767 and CCD13Lu cell lysates were collected exactly the same way as described before and 50 μg of cell lysate was used in the activity assay. […] All assays contained 1% (v/v) DMSO.
# (§5) Cell lysates were obtained from A549, SF767 and CCD13Lu cell lines. In summary, cells (A549, SF767 and CCD13Lu) were washed with ice cold PBS to remove residual media. 400 μL of RIPA buffer (Cell signaling technologies) containing 1 mM PMSF (Sigma Aldrich) was added to each 10 cm dish. Plates were incubated on ice for 5 minutes, scraped and lysates were collected. Lysates were centrifuged for 10 minutes at 16,000×G in a micro-centrifuge at 4° C. Protein concentrations were measured using the Bradford reagent (Biorad Laboratories). 50 μg of cell lysate was used in the activity assay. […] All assays, including the controls, contained 1% (v/v) DMSO.
# [4] = biological target: ALDH3A1 activity in A549 cell lysates (Homo sapiens (Human), UniProt P30838); assay type: biochemical; conditions: 50 μM CB29
# Protocol: as §4, §5
# ALDH2 = ALDH2 (Homo sapiens (Human), UniProt P05091); assay: ALDH2 dehydrogenase activity / IC50 determination (propionaldehyde substrate); assay type: biochemical; conditions: up to 250 μM
# Protocol: The enzymatic activity of ALDH1A1, ALDH2 and ALDH3A1 were measured as described previously^[30,34,37,39]. The specific activities of the purified proteins were 1.9, 3.8 and 32 μmole/min/mg for ALDH1A1, ALDH2 and ALDH3A1 respectively.
# as §2, §3
# ALDH1A1 = ALDH1A1 (Homo sapiens (Human), UniProt P00352); assay: ALDH1A1 dehydrogenase activity / IC50 determination (propionaldehyde substrate); assay type: biochemical; conditions: up to 250 μM
# Protocol: as §1, §2, §3
# [5] = biological target: ALDH3A1 activity in SF767 cell lysates (Homo sapiens (Human), UniProt P30838); assay type: biochemical; conditions: 50 μM CB29
# Protocol: as §4, §5
# SF767 cells = assay: MTT assay for cell proliferation / mafosfamide sensitivity, SF767; assay type: cell-based; conditions: 50 μM inhibitor; 146±2 μM without inhibitor
# T1 sequence (P30838 whole entry): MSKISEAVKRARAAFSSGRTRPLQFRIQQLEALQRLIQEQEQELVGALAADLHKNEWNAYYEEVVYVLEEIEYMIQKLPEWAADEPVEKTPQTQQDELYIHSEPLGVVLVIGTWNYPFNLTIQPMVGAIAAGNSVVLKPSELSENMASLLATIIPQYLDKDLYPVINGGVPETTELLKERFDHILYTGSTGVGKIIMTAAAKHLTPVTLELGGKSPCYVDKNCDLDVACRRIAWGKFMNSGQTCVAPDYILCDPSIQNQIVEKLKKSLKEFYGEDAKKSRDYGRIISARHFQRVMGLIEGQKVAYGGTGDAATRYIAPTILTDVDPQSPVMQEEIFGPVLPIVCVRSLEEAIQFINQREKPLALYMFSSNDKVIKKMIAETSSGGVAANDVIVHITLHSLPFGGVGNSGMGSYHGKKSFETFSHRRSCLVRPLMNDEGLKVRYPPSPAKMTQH
# Chain of ALDH3A1 activity in A549 cell lysates (P30838 whole entry): as above
# Chain of ALDH3A1 activity in SF767 cell lysates (P30838 whole entry): as above
# Chain of ALDH1A1 (P00352 whole entry): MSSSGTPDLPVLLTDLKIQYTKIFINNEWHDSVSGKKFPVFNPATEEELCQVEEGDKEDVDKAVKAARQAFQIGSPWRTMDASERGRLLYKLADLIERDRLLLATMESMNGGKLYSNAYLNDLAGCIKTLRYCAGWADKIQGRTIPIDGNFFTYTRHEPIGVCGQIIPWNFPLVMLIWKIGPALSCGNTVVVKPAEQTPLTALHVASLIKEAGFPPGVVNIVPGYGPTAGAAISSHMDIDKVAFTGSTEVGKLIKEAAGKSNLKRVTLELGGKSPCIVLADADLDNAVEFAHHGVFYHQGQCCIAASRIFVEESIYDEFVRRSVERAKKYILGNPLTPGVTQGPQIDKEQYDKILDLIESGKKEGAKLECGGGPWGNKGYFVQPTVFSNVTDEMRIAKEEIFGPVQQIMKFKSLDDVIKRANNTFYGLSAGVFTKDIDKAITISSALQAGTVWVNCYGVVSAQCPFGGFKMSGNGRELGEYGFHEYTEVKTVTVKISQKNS
# Chain of ALDH2 (P05091 18-517): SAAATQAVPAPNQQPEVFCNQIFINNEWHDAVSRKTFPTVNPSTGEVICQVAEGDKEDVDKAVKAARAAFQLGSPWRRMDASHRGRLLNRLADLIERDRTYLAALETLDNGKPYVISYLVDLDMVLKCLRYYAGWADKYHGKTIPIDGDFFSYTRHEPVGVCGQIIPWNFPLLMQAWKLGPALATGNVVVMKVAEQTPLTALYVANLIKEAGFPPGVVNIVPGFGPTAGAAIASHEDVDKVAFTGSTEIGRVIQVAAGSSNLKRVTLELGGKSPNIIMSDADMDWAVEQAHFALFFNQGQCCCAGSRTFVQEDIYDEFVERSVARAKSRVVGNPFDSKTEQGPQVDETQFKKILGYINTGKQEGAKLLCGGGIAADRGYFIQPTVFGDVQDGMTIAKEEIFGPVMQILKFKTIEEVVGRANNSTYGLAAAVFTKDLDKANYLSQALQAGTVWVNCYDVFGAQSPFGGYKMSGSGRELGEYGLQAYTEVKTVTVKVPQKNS
Compound,inhibition at 10 µM (ALDH3A1 [2]) [%],other results
N#CSCCCCOc1ccc(Cl)cc1 [CB1],–,IC50 (ALDH3A1 [1]): 3.7 µM
O=[N+](O)c1ccccc1CNc1ccc(F)c(F)c1 [CB2],–,IC50 (ALDH3A1 [1]): 5.2 µM
Cc1cc(OCC(=O)O)c([N+](=O)O)cc1Cl [CB3],55,–
Cc1cc(C2CNc3ccccc32)oc(=O)c1 (centres unmarked) [CB4],60,–
Nc1ccc(-c2cc(C(=O)O)c3ccccc3n2)cc1 [CB5],34,–
N#CSC1CN=C(NC2CCCCC2)S1 (centres unmarked) [CB6],6,–
"Cc1nc2ccccc2n1S(=O)(=O)c1ccc(F)cc1 [CB7, 1-[(4-fluorophenyl)sulfonyl]-2-methyl-1H-benzimidazole]",–,solubility (in words) (Solubility): very good solubility
N#CC(Cc1ccc(S(=O)(=O)c2ccc(Cl)cc2)cc1)c1nc2ccccc2[nH]1 (centres unmarked) [CB10],58,–
OCCCn1c(-c2ccc(Cl)cc2)cn2c3ccccc3nc12 [CB11],61,–
CCN(CC)CCC(=O)c1ccc2c(c1)OCO2 [CB12],–,IC50 (ALDH3A1 [1]): 3.2 µM
O=C(CCN1CCOCC1)c1ccc2c(c1)OCCO2 [CB13],–,IC50 (ALDH3A1 [1]): 11.7 µM
O=[N+]([O-])c1ccc(N2CCCC2)c(F)c1 [CB14],47,–
CCNC(=O)CC1Nc2cc(C)c(C)cc2NC1=O (centres unmarked) [CB16],50,–
CN(CC(=O)[O-])c1nc2ccc([N+](=O)O)cc2s1 [CB21],58,–
O=C(CSc1ccccc1)NCc1ccco1 [CB23],65,–
CCOc1cc(/C=C/[N+](=O)O)ccc1O [CB26],45,–
c1ccc(CNc2nc(-c3ccccn3)cs2)cc1 [CB27],43,–
"CC(=O)Nc1ccc(Nc2ccc(S(C)(=O)=O)cc2[N+](=O)[O-])cc1 [CB29, N-[4-{(4-(methylsulfonyl)-2-nitrophenyl)-4-amino}-phenyl]-acetamide]",–,"decrease of activity of recombinant ALDH3A1 (ALDH3A1 [3]): ~97%; decrease of ALDH3A1 activity in A549 cell lysate [4]: > 95%; inhibition toward ALDH2 (ALDH2): < 5%; concentration of homogenous solution easily formed (Solubility; in the presence of […] DMSO): ≥ 100 µM; inhibition toward ALDH1A1 (ALDH1A1): < 5%; decrease of ALDH3A1 activity in SF767 cell lysate [5]: > 90%; ED50 value of mafosfamide in the presence of inhibitor, SF767 (SF767 cells): 92 ± 4 µM"
O=C(O)CCc1ccc(-c2ccc(F)cc2)o1 [CB32],36,–
C=CCOc1ccc(/C=C/[N+](=O)O)cc1OC [CB35],46,–
C#CCOc1ccc(/C=C/[N+](=O)O)cc1 [CB36],30,–
Cc1ccc(/C=C/[N+](=O)O)cc1Br [CB37],30,–
COc1ccc(/C=C/[N+](=O)O)cc1Br [CB38],40,–
